# Assay results: patent US20240409530A1, “Disubstituted Pyrimidine Compounds for Ketohexokinase Inhibition” (Centennial Therapeutics, LLC, priority 2023, published 2024)
# Columns and labels:
# Test in all cases: KHK inhibition assay, recombinant isozyme (coupled pyruvate kinase/LDH, NADH absorbance 340 nm)
# Format in all cases: biochemical
# Settings in all cases: recombinant isozyme 6 nM, fructose 2 mM, ATP 0.1 mM
# Human recombinant KHK-C = Human recombinant KHK-C (Homo sapiens (Human), UniProt P50053)
# Procedure: (§1) Determination of Human and Rat recombinant KHK-A and KHK-C isozyme IC50 Values
# (§2) An assay reagent cocktail was prepared by combining NADH, water, TEA, KCl, MgCl2, PEP, ATP, DTT, coupling enzymes (pyruvate kinase and lactate dehydrogenase, LDH) to final concentrations as shown in Table B.
# (§3) To this was added the relevant KHK isozyme to a final concentration of 6 nM. Aliquots of each inhibitor compound were diluted via 5-fold serial dilutions to produce final concentrations ranging from 1000 nM to 0.064 nM. The inhibitor aliquots were added to the assay reagent cocktail containing KHK with fructose (at a concentration of 2 mM) in a 96-well plate. The absorbance at 340 nm was measured via spectrophotometry and inhibition was analyzed using non-linear regression.
# Human recombinant KHK-A = Human recombinant KHK-A (Homo sapiens (Human), UniProt P50053)
# Procedure: as §1, §2, §3
# Rat recombinant KHK-A = Rat recombinant KHK-A (Rattus norvegicus (Rat), UniProt Q02974)
# Procedure: as §1, §2, §3
# Rat recombinant KHK-C = Rat recombinant KHK-C (Rattus norvegicus (Rat), UniProt Q02974)
# Procedure: as §1, §2, §3
# Human recombinant KHK-C, sequence (P50053 whole entry): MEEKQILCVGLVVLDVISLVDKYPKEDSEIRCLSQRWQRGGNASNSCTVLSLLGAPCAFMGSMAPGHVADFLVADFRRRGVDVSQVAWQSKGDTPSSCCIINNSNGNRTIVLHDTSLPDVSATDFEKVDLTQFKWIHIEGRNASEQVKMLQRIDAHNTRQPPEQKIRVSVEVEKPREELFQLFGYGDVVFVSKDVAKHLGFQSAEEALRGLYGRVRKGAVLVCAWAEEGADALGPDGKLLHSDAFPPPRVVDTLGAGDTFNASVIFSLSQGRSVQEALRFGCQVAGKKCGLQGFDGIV
# Rat recombinant KHK-A, sequence (Q02974 other isoform, or with tags, fused parts or gaps): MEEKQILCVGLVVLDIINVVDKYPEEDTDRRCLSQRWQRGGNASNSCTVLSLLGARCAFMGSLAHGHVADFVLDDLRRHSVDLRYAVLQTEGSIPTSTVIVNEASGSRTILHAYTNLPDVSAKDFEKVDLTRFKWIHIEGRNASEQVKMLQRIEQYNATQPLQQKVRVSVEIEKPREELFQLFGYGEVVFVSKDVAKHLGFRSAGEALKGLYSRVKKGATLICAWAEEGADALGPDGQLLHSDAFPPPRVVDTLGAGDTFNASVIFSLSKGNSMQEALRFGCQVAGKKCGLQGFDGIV
# Rat recombinant KHK-C, sequence (Q02974 whole entry): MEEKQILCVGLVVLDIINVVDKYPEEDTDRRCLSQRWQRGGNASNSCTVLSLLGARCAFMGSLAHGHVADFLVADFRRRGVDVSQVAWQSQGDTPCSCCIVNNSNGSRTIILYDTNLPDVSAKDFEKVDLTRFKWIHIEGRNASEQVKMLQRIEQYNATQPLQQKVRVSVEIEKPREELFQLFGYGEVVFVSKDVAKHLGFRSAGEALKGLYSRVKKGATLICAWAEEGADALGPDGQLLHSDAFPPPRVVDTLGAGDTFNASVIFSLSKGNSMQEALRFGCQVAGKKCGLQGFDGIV
# Human recombinant KHK-A, sequence (P50053 other isoform, or with tags, fused parts or gaps): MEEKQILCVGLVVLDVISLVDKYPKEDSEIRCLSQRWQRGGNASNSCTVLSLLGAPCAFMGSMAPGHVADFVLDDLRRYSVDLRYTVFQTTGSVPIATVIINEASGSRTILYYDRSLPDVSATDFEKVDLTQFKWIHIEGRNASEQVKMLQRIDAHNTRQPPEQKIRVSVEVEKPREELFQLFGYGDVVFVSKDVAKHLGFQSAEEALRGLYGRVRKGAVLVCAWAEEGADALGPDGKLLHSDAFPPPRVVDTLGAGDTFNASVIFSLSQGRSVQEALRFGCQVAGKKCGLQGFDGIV
Compound,IC50 (Human recombinant KHK-C) [µM],IC50 (Human recombinant KHK-A) [µM],IC50 (Rat recombinant KHK-A) [µM],IC50 (Rat recombinant KHK-C) [µM]
"C[C@H]1CCN1c1nc(-c2cnn(CC(=O)N3CCNCC3)c2)c(F)c(C(F)F)n1 [Compound A22, 2-(4-{2-[(S)-2-methyl-1-azetidinyl]-6-(difluoromethyl)-5-fluoro-4-pyrimidinyl}-1-pyrazolyl)-1-(1-piperazinyl)-1-ethanone]",0.0658,,,
"O=C(Cn1cc(-c2nc(N3CC[C@@H]3C(F)F)nc(C(F)(F)F)c2F)cn1)N1CCNCC1 [Compound A16, 2-(4-{2-[(R)-2-(difluoromethyl)-1-azetidinyl]-5-fluoro-6-(trifluoromethyl)-4-pyrimidinyl}-1-pyrazolyl)-1-(1-piperazinyl)-1-ethanone]",0.0478,,,
"COc1c(-c2cnn(C3CN(C)C3)c2)nc(N2C[C@@H](O)[C@@H]2C)nc1C(F)(F)F [Compound A8, (2S,3R)-1-{5-methoxy-4-[1-(1-methyl-3-azetidinyl)-4-pyrazolyl]-6-(trifluoromethyl)-2-pyrimidinyl}-2-methyl-3-azetidinol]",0.00646,0.0078,0.0055,0.016
"COc1c(-c2cnn(CC(=O)N3CCNCC3)c2)nc(N2CC[C@@H]2C(F)(F)F)nc1C(F)(F)F [Compound A28, 2-(4-{2-[(R)-2-(trifluoromethyl)-1-azetidinyl]-5-methoxy-6-(trifluoromethyl)-4-pyrimidinyl}-1-pyrazolyl)-1-(1-piperazinyl)-1-ethanone]",0.018,0.015,0.0041,0.02
"C[C@H]1CCN1c1nc(-c2cnn(CC(=O)N3CCNCC3)c2)c(F)c(C(F)(F)F)n1 [Compound A32, 2-(4-{2-[(S)-2-methyl-1-azetidinyl]-5-fluoro-6-(trifluoromethyl)-4-pyrimidinyl}-1-pyrazolyl)-1-(1-piperazinyl)-1-ethanone]",0.0232,0.012,0.0082,0.02
"C[C@H]1CCN1c1nc(-c2cnn(CC(=O)N3CCNCC3)c2)c(C2CC2)c(C(F)(F)F)n1 [Compound A30, 2-(4-{2-[(S)-2-methyl-1-azetidinyl]-5-cyclopropyl-6-(trifluoromethyl)-4-pyrimidinyl}-1-pyrazolyl)-1-(1-piperazinyl)-1-ethanone]",0.0413,,,
"CCc1c(-c2cnn(CC(=O)N3CCNCC3)c2)nc(N2CC[C@@H]2C(F)F)nc1C(F)(F)F [Compound A41, 2-(4-{2-[(R)-2-(difluoromethyl)-1-azetidinyl]-5-ethyl-6-(trifluoromethyl)-4-pyrimidinyl}-1-pyrazolyl)-1-(1-piperazinyl)-1-ethanone]",0.0171,,,
"O=C(Cn1cc(-c2nc(N3CC[C@@H]3C(F)F)nc(C(F)F)c2Cl)cn1)N1CCNCC1 [Compound A37, 2-(4-{2-[(R)-2-(difluoromethyl)-1-azetidinyl]-5-chloro-6-(difluoromethyl)-4-pyrimidinyl}-1-pyrazolyl)-1-(1-piperazinyl)-1-ethanone]",0.0119,,,
"O=C(Cn1cc(-c2nc(N3CC[C@@H]3C(F)(F)F)nc(C(F)(F)F)c2Cl)cn1)N1CCNCC1 [Compound A29, 2-(4-{2-[(R)-2-(trifluoromethyl)-1-azetidinyl]-5-chloro-6-(trifluoromethyl)-4-pyrimidinyl}-1-pyrazolyl)-1-(1-piperazinyl)-1-ethanone]",0.00503,,,
"O=C(Cn1cc(-c2nc(N3CC[C@@H]3C(F)F)nc(C(F)F)c2F)cn1)N1CCNCC1 [Compound A39, 2-(4-{2-[(R)-2-(difluoromethyl)-1-azetidinyl]-6-(difluoromethyl)-5-fluoro-4-pyrimidinyl}-1-pyrazolyl)-1-(1-piperazinyl)-1-ethanone]",0.11,,,
"COc1c(-c2cnn(CC(=O)N3CCNCC3)c2)nc(N2CC[C@@H]2C(F)F)nc1C(F)F [Compound A44, 2-(4-{2-[(R)-2-(difluoromethyl)-1-azetidinyl]-6-(difluoromethyl)-5-methoxy-4-pyrimidinyl}-1-pyrazolyl)-1-(1-piperazinyl)-1-ethanone]",0.061,,,
"O=C(Cn1cc(-c2nc(N3CC[C@@H]3C(F)F)nc(C(F)F)c2C2CC2)cn1)N1CCNCC1 [Compound A13, 2-(4-{2-[(R)-2-(difluoromethyl)-1-azetidinyl]-5-cyclopropyl-6-(difluoromethyl)-4-pyrimidinyl}-1-pyrazolyl)-1-(1-piperazinyl)-1-ethanone]",0.0411,,,
"O=C(Cn1cc(-c2cc(C(F)F)nc(N3CC[C@@H]3C(F)F)n2)cn1)N1CCNCC1 [Compound A14, 2-(4-{2-[(R)-2-(difluoromethyl)-1-azetidinyl]-6-(difluoromethyl)-4-pyrimidinyl}-1-pyrazolyl)-1-(1-piperazinyl)-1-ethanone]",0.318,,,
"COc1c(-c2cnn(CC(=O)N3CCNCC3)c2)nc(N2CC[C@@H]2C(F)F)nc1C(F)(F)F [Compound A36, 2-(4-{2-[(R)-2-(difluoromethyl)-1-azetidinyl]-5-methoxy-6-(trifluoromethyl)-4-pyrimidinyl}-1-pyrazolyl)-1-(1-piperazinyl)-1-ethanone]",0.0366,,,
"C[C@H]1CCN1c1nc(-c2cnn(CC(=O)N3CCNCC3)c2)c(Cl)c(C(F)(F)F)n1 [Compound A4, 2-(4-{2-[(S)-2-methyl-1-azetidinyl]-5-chloro-6-(trifluoromethyl)-4-pyrimidinyl}-1-pyrazolyl)-1-(1-piperazinyl)-1-ethanone]",0.00594,0.0018,0.0013,0.0049
"O=C(Cn1cc(-c2cc(C(F)(F)F)nc(N3CC[C@@H]3C(F)F)n2)cn1)N1CCNCC1 [Compound A33, 2-(4-{2-[(R)-2-(difluoromethyl)-1-azetidinyl]-6-(trifluoromethyl)-4-pyrimidinyl}-1-pyrazolyl)-1-(1-piperazinyl)-1-ethanone]",0.0909,0.065,0.023,0.086
"CCc1c(-c2cnn(CC(=O)N3CCNCC3)c2)nc(N2CC[C@@H]2C(F)F)nc1C(F)F [Compound A40, 2-(4-{2-[(R)-2-(difluoromethyl)-1-azetidinyl]-6-(difluoromethyl)-5-ethyl-4-pyrimidinyl}-1-pyrazolyl)-1-(1-piperazinyl)-1-ethanone]",0.0332,,,
"COc1c(-c2cnn(CC(=O)N3CCNCC3)c2)nc(N2CC[C@@H]2C)nc1C(F)(F)F [Compound A5, 2-(4-{2-[(S)-2-methyl-1-azetidinyl]-5-methoxy-6-(trifluoromethyl)-4-pyrimidinyl}-1-pyrazolyl)-1-(1-piperazinyl)-1-ethanone]",0.0306,0.069,0.026,0.044
"O=C(Cn1cc(-c2cc(C(F)F)nc(N3CC[C@@H]3C(F)(F)F)n2)cn1)N1CCNCC1 [Compound A20, 2-(4-{2-[(R)-2-(trifluoromethyl)-1-azetidinyl]-6-(difluoromethyl)-4-pyrimidinyl}-1-pyrazolyl)-1-(1-piperazinyl)-1-ethanone]",0.133,,,
"C[C@H]1[C@H](O)CN1c1nc(-c2cnn(C3CN(C)C3)c2)c(Cl)c(C(F)(F)F)n1 [Compound A10, (2S,3R)-1-{5-chloro-4-[1-(1-methyl-3-azetidinyl)-4-pyrazolyl]-6-(trifluoromethyl)-2-pyrimidinyl}-2-methyl-3-azetidinol]",0.000856,0.0002,0.0002,0.0011
"O[C@@H]1CN(c2nc(-c3cnn(C4CNC4)c3)cc(C(F)(F)F)n2)[C@H]1C(F)(F)F (racemic) [Compound A31, (2R,3R)-1-{4-[1-(3-azetidinyl)-4-pyrazolyl]-6-(trifluoromethyl)-2-pyrimidinyl}-2-(trifluoromethyl)-3-azetidinol]",0.0168,,,
"C[C@H]1[C@H](O)CN1c1nc(-c2cnn(C3CN(C)C3)c2)c(C2CC2)c(C(F)(F)F)n1 [Compound A34, (2S,3R)-1-{5-cyclopropyl-4-[1-(1-methyl-3-azetidinyl)-4-pyrazolyl]-6-(trifluoromethyl)-2-pyrimidinyl}-2-methyl-3-azetidinol]",0.0254,,,
"CN1CC(n2cc(-c3cc(C(F)(F)F)nc(N4C[C@@H](O)[C@@H]4C(F)(F)F)n3)cn2)C1 (racemic) [Compound A25, (2R,3R)-1-{4-[1-(1-methyl-3-azetidinyl)-4-pyrazolyl]-6-(trifluoromethyl)-2-pyrimidinyl}-2-(trifluoromethyl)-3-azetidinol]",0.00522,0.0022,0.0057,0.015
"O=C(Cn1cc(-c2nc(N3CC[C@@H]3C(F)F)nc(C(F)(F)F)c2C2CC2)cn1)N1CCNCC1 [Compound A17, 2-(4-{2-[(R)-2-(difluoromethyl)-1-azetidinyl]-5-cyclopropyl-6-(trifluoromethyl)-4-pyrimidinyl}-1-pyrazolyl)-1-(1-piperazinyl)-1-ethanone]",0.0749,,,
"COc1c(-c2cnn(CC(=O)N3CCNCC3)c2)nc(N2CC[C@@H]2C)nc1C(F)F [Compound A23, 2-(4-{2-[(S)-2-methyl-1-azetidinyl]-6-(difluoromethyl)-5-methoxy-4-pyrimidinyl}-1-pyrazolyl)-1-(1-piperazinyl)-1-ethanone]",0.0546,,,
"COc1c(-c2cnn(CC(=O)N3CCNCC3)c2)nc(N2CC[C@@H]2C(F)(F)F)nc1C(F)F [Compound A15, 2-(4-{2-[(R)-2-(trifluoromethyl)-1-azetidinyl]-6-(difluoromethyl)-5-methoxy-4-pyrimidinyl}-1-pyrazolyl)-1-(1-piperazinyl)-1-ethanone]",0.0327,,,
